Source: publication PMC7689813 (Journal of Clinical Pharmacology, 2020)
“And” between values parts separate entries of the source, which are not always exact repeats. Equal entries are not always repeated. “Also recorded” adds a separate entry of the source.

Legend:
[1] = Clinical DDI study: elagolix and sertraline
[2] = tested on: CYP3A; experiment: Clinical DDI study: elagolix 150 mg once daily effect on midazolam; conditions: male participants
[3] = tested on: CYP3A; experiment: Clinical DDI study: elagolix 300 mg twice daily effect on midazolam
[4] = tested on: CYP2B6; experiment: Clinical DDI study: elagolix effect on bupropion; assay type: in vivo, human; conditions: for Change in AUC values / Increase in Cmax: single dose bupropion after 10 days of elagolix 300 mg twice daily
[5] = tested on: OATP1B1/B3 and BCRP; experiment: Clinical DDI study: elagolix and rosuvastatin; assay type: in vivo, human; conditions: for Increase in rosuvastatin Cmax: first (single) dose of elagolix 300 mg
[6] = tested on: CYP3A and P‐gp; experiment: Clinical DDI study: ketoconazole effect on elagolix; assay type: in vivo, human
[7] = Safety and tolerability in the 9 phase 1 DDI studies; assay type: in vivo, human; conditions: for Participants reporting 1 or more TEAE: ketoconazole study
[8] = cited from earlier work
[9] = background; cited from earlier work
[10] = tested on: CYP3A4; conditions: cited from earlier work
[11] = tested on: OATP1B1; conditions: cited from earlier work
[12] = tested on: P‐gp; conditions: cited from earlier work
[13] = tested on: breast cancer resistance protein (BCRP); conditions: cited from earlier work
[14] = tested on: CYP2C19; conditions: cited from earlier work
[15] = tested on: CYP2C19; conditions: cited from earlier work; remark: listed apart in the source
[16] = Clinical DDI study: elagolix and fluconazole
[17] = target: P‐gp (Homo sapiens, UniProt P08183); experiment: Clinical DDI study: elagolix effect on digoxin
[18] = tested on: OATP1B1, CYP3A and P‐gp; experiment: Clinical DDI study: single and multiple dose rifampin effect on elagolix
[19] = multiple doses of elagolix 300 mg twice daily
[20] = first dose of elagolix 300 mg twice daily, female participants
[21] = multiple doses of rifampin (dosing for 10 days) vs elagolix alone
[22] = either single dose or multiple doses (10 days) of elagolix 200 mg twice daily

Sequence of P‐gp (Homo sapiens, UniProt P08183) (P08183 whole entry): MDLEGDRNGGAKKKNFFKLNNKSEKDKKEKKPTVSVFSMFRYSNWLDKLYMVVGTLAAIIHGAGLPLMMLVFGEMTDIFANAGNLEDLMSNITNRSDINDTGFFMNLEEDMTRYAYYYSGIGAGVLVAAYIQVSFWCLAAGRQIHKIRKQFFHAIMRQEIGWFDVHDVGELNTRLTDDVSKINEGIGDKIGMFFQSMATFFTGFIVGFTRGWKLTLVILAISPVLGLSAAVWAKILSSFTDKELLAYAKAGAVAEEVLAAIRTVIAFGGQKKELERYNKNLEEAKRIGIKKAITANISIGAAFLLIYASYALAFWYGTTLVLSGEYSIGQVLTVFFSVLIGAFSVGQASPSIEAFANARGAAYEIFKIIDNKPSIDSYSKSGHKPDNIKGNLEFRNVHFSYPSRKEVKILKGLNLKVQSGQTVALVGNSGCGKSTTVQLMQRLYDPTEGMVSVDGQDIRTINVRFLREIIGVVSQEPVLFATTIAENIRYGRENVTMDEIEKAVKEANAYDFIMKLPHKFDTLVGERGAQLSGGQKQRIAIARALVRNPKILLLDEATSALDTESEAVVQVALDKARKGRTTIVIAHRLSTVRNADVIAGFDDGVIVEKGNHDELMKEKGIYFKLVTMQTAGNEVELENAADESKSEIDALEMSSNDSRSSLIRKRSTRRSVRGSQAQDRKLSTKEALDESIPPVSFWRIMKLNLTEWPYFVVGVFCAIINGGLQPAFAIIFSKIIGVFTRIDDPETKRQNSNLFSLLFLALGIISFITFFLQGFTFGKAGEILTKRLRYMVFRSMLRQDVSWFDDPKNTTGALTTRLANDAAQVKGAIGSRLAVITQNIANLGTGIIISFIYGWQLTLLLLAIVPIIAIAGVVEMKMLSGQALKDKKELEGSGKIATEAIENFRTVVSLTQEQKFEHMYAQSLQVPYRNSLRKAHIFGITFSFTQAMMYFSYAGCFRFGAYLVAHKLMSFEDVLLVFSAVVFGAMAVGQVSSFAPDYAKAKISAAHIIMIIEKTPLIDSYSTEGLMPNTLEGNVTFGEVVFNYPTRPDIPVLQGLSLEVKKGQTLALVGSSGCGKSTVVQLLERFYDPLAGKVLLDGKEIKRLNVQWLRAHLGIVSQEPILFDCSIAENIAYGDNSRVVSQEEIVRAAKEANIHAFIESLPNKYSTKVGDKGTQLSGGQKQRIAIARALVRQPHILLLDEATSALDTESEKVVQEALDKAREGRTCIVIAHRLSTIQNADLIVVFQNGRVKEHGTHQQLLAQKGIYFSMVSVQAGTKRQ

CN[C@H]1CC[C@@H](c2ccc(Cl)c(Cl)c2)c2ccccc21 [sertraline, reference compound]
Changes in exposure on coadministration of elagolix with sertraline ([1]; abstract summary): No clinically significant changes in exposure
Increase in sertraline steady‐state Cmax [1, 19]: 34%

Cc1ncc2n1-c1ccc(Cl)cc1C(c1ccccc1F)=NC2 [midazolam]
Decrease in midazolam AUC ([2]; multiple doses of elagolix 150 mg once daily): ~35%
Decrease in midazolam AUC ([2]; single dose of elagolix 150 mg once daily): approximately 21%
Increase in midazolam AUC [3, 20]: ~27%
Increase in midazolam Cmax [3, 20]: approximately 18%
Decrease in midazolam Cmax ([3]; multiple doses of elagolix 300 mg twice daily (11 days of dosing), female participants): approximately 44%

CC(NC(C)(C)C)C(=O)c1cccc(Cl)c1 (centres unmarked) [bupropion]
Increase in bupropion PK ([4]; elagolix 300 mg twice daily): ≤ 25%
Change in AUC values [4]: ≤ 9%
Increase in Cmax [4]: 25%

CC(C)c1nc(N(C)S(C)(=O)=O)nc(-c2ccc(F)cc2)c1/C=C/[C@@H](O)C[C@@H](O)CC(=O)O [rosuvastatin]
Increase in rosuvastatin Cmax [5]: approximately 67%
Increase in rosuvastatin Cmax ([5]; listed as Rosuvastatin): 67%
Change in rosuvastatin AUC ([5]; first dose of elagolix 300 mg twice daily): no significant change
Change in rosuvastatin Cmax (steady state) [5, 19]: not significantly changed; also recorded: no change

COc1cccc(-c2c(C)n(Cc3c(F)cccc3C(F)(F)F)c(=O)n(C[C@H](NCCCC(=O)O)c3ccccc3)c2=O)c1F [elagolix, sodium R‐(+)‐4‐{2‐[5‐(2‐fluoro‐3‐methoxyphenyl)‐3‐(2‐fluoro‐6‐[trifluoromethyl]benzyl)‐4 ‐methyl‐2,6‐dioxo‐3,6‐dihydro‐2H‐pyrimidin‐1‐yl]‐1‐phenylethylamino}butyrate]
Classification of elagolix as CYP3A (or P‐gp) substrate ([6]; based on ketoconazole study vs FDA criterion (≥5‐fold increase)): not considered a sensitive CYP3A substrate
Elagolix half‐life with vs without ketoconazole coadministration ([6]; elagolix 150 mg single dose, ketoconazole 400 mg once daily): similar
Effect of rosuvastatin on elagolix exposure ([5]; rosuvastatin 20 mg once daily, elagolix 300 mg twice daily): no effect
Changes in vital sign values, ECG parameters, physical examination findings, laboratory measurements ([7]; across all studies): no clinically significant changes
Most common adverse events assessed as mild and reasonably related to elagolix ([7]; across all studies): hot flush, headache, nausea, and amenorrhea
Severe adverse events (all assessed as not related to elagolix) ([7]; across all studies): 3
Tolerability ([7]; elagolix and coadministered drugs across regimens, 144 female and male participants, 9 phase 1 studies): generally well tolerated
Participants reporting 1 or more TEAE ([7]; elagolix‐alone portion of the test regimen): zero
Excreted unchanged in urine [8]: less than 3%
Plasma exposure of elagolix metabolites relative to the parent compound [8]: less than 3%
Dose proportionality of exposure ([8]; from 100 to 400 mg twice daily): approximately dose proportional
Apparent terminal‐phase elimination half‐life (t½) ([8]; oral): 4 to 6 h
Time to mean maximum observed plasma concentration (Tmax) ([8]; oral): approximately 1 hour
Common adverse reactions associated with elagolix [9]: hot flush, headache, and nausea
In vitro effect on CYP3A4 [10]: inducer
In vitro metabolism (enzyme) [10]: metabolized primarily by the cytochrome P450 (CYP) enzyme CYP3A4
In vitro effect on OATP1B1 [11]: inhibitor
In vitro effect on P‐gp [12]: inhibitor
In vitro effect on BCRP [13]: inhibitor
In vitro effect on CYP2C19 [14]: inhibitor
Classification of elagolix as inhibitor of CYP2C19 [15]: weak inhibitor
Effect of sertraline on elagolix plasma exposures (Cmax and AUC) ([1]; single‐dose 300‐mg elagolix, sertraline 25 mg once daily for 10 days): not affected; also recorded: did not affect
Increase in elagolix steady‐state Cmax ([16]; 10 days of elagolix 300 mg twice daily, single dose of fluconazole 200 mg): approximately 30%
Classification of elagolix as inhibitor of efflux transporter P‐gp ([17]; mechanistic clinical studies): weak inhibitor
Increase in elagolix exposures (Cmax and AUC) ([18]; multiple days of rifampin dosing): ≤ 2 fold
Increase in elagolix AUC [18, 21]: ~2 fold and 1.7 fold
Increase in elagolix Cmax [18, 21]: 2.0 fold
Increase in elagolix exposures (Cmax and AUC) ([18]; single dose of rifampin): < 6 fold and > 4.4 fold
Increase in elagolix Cmax ([18]; with a single dose of rifampin 600 mg vs elagolix alone): 4.4 fold
Classification of elagolix as inducer of CYP3A ([3]; depending on the dose administered (150 mg once daily, 300 mg twice daily), midazolam studies): weak or moderate inducer; also recorded: weak to moderate inducer

OCc1ncc2n1-c1ccc(Cl)cc1C(c1ccccc1F)=NC2 [1‐OH‐midazolam, 1-hydroxymidazolam]
Increase in 1‐OH‐midazolam exposures ([2]; elagolix 150 mg once daily): up to 11%

C[C@H]1O[C@@H](O[C@H]2[C@@H](O)C[C@H](O[C@H]3[C@@H](O)C[C@H](O[C@H]4CC[C@@]5(C)[C@H](CC[C@@H]6[C@@H]5C[C@@H](O)[C@]5(C)[C@@H](C7=CC(=O)OC7)CC[C@]65O)C4)O[C@@H]3C)O[C@@H]2C)C[C@H](O)[C@@H]1O [digoxin]
Increase in digoxin AUC [17, 22]: ~30%
Increase in digoxin Cmax [17, 22]: approximately 70%
Digoxin t½ alone vs in the presence of elagolix ([17]; elagolix 200 mg twice daily): similar

C[C@H]1NC(C)(C)CO[C@]1(O)c1cccc(Cl)c1 [OH‐bupropion, hydroxybupropion]
Change in AUC values [4]: ≤ 9%
Increase in Cmax [4]: 32%

OC(Cn1cncn1)(Cn1cncn1)c1ccc(F)cc1F [fluconazole]
Changes in exposure on coadministration of elagolix with fluconazole ([16]; abstract summary): No clinically significant changes in exposure
Effect of elagolix on fluconazole exposures (Cmax and AUC) ([16]; elagolix 300 mg twice daily, fluconazole 200 mg single dose): not affected; also recorded: did not affect

CC(=O)N1CCN(c2ccc(OCC3COC(Cn4ccnc4)(c4ccc(Cl)cc4Cl)O3)cc2)CC1 (centres unmarked) [ketoconazole, reference compound]
Participants reporting 1 or more TEAE ([7]; ketoconazole‐alone portion of the test regimen): 82%
